These are literature values, as cited in US20100015233A1, “anti-parasitic compositions” (priority 2006, published 2010).

Each structure is given as a SMILES string. In brackets after ≈: the same amount, converted by molar mass.

The term half-life denotes the time in which the quantity being followed falls by half.

For data set [1] the following is noted: in vivo.

With `CCCCN(CCCC)CC(O)c1cc(Cl)cc2c1-c1ccc(Cl)cc1/C2=C/c1ccc(Cl)cc1` (centres unmarked) [Lumefantrine], the half-life in data set [1] was 72 to 140 h.

In the case of `C[C@@H]1CC[C@H]2[C@@H](C)C(=O)O[C@@H]3O[C@@]4(C)CC[C@@H]1[C@]32OO4` [artemisinin], the solubility in water was 0.084 mg/mL (≈ 298 µM).
